Results: ChEMBL document CHEMBL1909046, “DrugMatrix in vitro pharmacology data”
Where a SMILES comes first, the peptide text is derived from it. Bridges are numbered along the chain shown (N, C = ends). [ ]: non-standard residue; d: D form. The star is where a group is joined. Ileψ(thiazoline)Cys = CC[C@H](C)[C@H](N)C1=N[C@H](C(=O)*)CS1; dOrn = NCCC[C@@H](N)C(=O)O

Columns and labels:
[1] = target: T1, Alpha-2C adrenergic receptor (Homo sapiens, UniProt P18825); test: DRUGMATRIX: Adrenergic Alpha-2C radioligand binding (ligand: [3H] MK-912); format: cell membranes, Sf9, Membrane; conditions: for Ki: read-out: Ki
T1 sequence (P18825 whole entry): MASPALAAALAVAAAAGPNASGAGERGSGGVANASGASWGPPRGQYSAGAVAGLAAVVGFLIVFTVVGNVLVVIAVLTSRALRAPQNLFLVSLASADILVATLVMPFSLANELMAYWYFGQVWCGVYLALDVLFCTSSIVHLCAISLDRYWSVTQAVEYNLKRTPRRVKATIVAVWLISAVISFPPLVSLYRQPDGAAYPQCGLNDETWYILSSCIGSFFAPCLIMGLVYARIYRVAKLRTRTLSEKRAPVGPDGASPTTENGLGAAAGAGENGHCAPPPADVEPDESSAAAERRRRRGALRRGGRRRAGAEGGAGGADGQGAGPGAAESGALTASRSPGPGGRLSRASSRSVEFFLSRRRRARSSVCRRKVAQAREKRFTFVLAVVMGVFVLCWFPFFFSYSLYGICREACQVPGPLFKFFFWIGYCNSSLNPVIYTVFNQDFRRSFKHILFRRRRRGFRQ

[2] = DRUGMATRIX: Calcium Channel Type L, Benzothiazepine radioligand binding (ligand: [3H] Diltiazem); format: cell membranes, Rattus norvegicus, Wistar, Brain, Membrane; conditions: Not Active = under 50% inhibition at 10 µM
[3] = target: T2, C-C chemokine receptor type 4 (Homo sapiens, UniProt P51679); format: cell membranes, Membrane; conditions: chem-1; also: in other assays of this panel Not Active means under 50% inhibition at 10 µM
T2 sequence (P51679 whole entry): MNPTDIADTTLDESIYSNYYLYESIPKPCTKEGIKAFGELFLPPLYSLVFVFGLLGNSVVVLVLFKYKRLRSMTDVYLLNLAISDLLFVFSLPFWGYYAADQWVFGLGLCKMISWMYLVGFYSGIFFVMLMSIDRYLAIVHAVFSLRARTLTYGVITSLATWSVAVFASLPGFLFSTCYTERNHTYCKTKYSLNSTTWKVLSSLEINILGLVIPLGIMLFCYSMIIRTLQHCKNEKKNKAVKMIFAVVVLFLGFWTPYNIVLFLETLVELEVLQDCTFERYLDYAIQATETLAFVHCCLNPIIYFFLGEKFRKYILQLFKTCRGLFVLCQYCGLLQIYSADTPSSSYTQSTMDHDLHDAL

| SMILES | IC50 ([1]; sf9) | IC50 [2] | Ki [2] | IC50 [3] | IC50 ([2]; read-out: IC50) | Ki ([2]; read-out: Ki) | IC50 ([1]; read-out: IC50) | Ki [1] |
| --- | --- | --- | --- | --- | --- | --- | --- | --- |
| CC[N+](CC)(CC)CCOc1cccc(OCC[N+](CC)(CC)CC)c1OCC[N+](CC)(CC)CC.[I-].[I-].[I-] [GALLAMINE TRIETHIODIDE] | Not Active | Not Active | Not Active | Not Active | – | – | – | – |
| CCCSc1ccc2nc(NC(=O)OC)[nH]c2c1 [ALBENDAZOLE] | Not Active | Not Active | Not Active | Not Active | – | – | – | – |
| CC1(C)[C@@H](O[C@H]2O[C@H](C(=O)O)[C@@H](O)[C@H](O)[C@H]2O[C@@H]2O[C@H](C(=O)O)[C@@H](O)[C@H](O)[C@H]2O)CC[C@]2(C)[C@H]3C(=O)C=C4[C@@H]5C[C@@](C)(C(=O)O)CC[C@]5(C)CC[C@@]4(C)[C@]3(C)CC[C@@H]12 [GLYCYRRHIZIN] | Not Active | Not Active | Not Active | Not Active | – | – | – | – |
| O=P1(NCCCl)OCCCN1CCCl (centres undefined) [IFOSFAMIDE] | Not Active | Not Active | Not Active | Not Active | – | – | – | – |
| COc1ccc([C@@H]2Sc3ccccc3N(CCN(C)C)C(=O)[C@@H]2OC(C)=O)cc1 [DILTIAZEM] | Not Active | – | – | Not Active | 28 nM | 25 nM | – | – |
| O=c1[nH]cc(F)c(=O)[nH]1 [FLUOROURACIL] | Not Active | Not Active | Not Active | Not Active | – | – | – | – |
| O=C(O)c1cn(C2CC2)c2cc(N3CCNCC3)c(F)cc2c1=O [CIPROFLOXACIN] | Not Active | Not Active | Not Active | Not Active | – | – | – | – |
| CC(C)(Oc1ccc(CCNC(=O)c2ccc(Cl)cc2)cc1)C(=O)O [BEZAFIBRATE] | Not Active | Not Active | Not Active | Not Active | – | – | – | – |
| CC[C@H](C)[C@H](N)C1=N[C@H](C(=O)N[C@@H](CC(C)C)C(=O)N[C@H](CCC(=O)O)C(=O)N[C@H](C(=O)N[C@H]2CCCCNC(=O)[C@H](CC(N)=O)NC(=O)[C@@H](CC(=O)O)NC(=O)[C@H](Cc3cnc[nH]3)NC(=O)[C@@H](Cc3ccccc3)NC(=O)[C@H]([C@@H](C)CC)NC(=O)[C@@H](CCCN)NC2=O)[C@@H](C)CC)CS1 [BACITRACIN] ({Ileψ(thiazoline)Cys}-L[dE]IK[dOrn]I[dF]H[dD]N; lactam 4-C) | Not Active | Not Active | Not Active | Not Active | – | – | – | – |
| Nc1nc(=O)[nH]cc1F [FLUCYTOSINE] | Not Active | Not Active | Not Active | Not Active | – | – | – | – |
| O=C1OCCN1/N=C/c1ccc([N+](=O)[O-])o1 [FURAZOLIDONE] | Not Active | Not Active | Not Active | Not Active | – | – | – | – |
| CC1(C)S[C@@H]2[C@H](NC(=O)[C@H](NC(=O)N3CCNC3=O)c3ccccc3)C(=O)N2[C@H]1C(=O)O [AZLOCILLIN] | Not Active | Not Active | Not Active | Not Active | – | – | – | – |
| N=C(N)NCCCCNC(=N)N.O=S(=O)(O)O [ARCAINE SULFATE] | Not Active | Not Active | Not Active | Not Active | – | – | – | – |
| Oc1cccc2cccnc12 [OXYQUINOLINE] | Not Active | Not Active | Not Active | Not Active | – | – | – | – |
| CN1CCC[C@H]1c1cccnc1 [NICOTINE] | Not Active | Not Active | Not Active | Not Active | – | – | – | – |
| C/C=C1\[C@H]2C=C(C)C[C@]1(N)c1ccc(=O)[nH]c1C2 [HUPERZINE A] | Not Active | Not Active | Not Active | Not Active | – | – | – | – |
| CC(/C=C1\SC(=S)N(CC(=O)O)C1=O)=C\c1ccccc1 | Not Active | Not Active | Not Active | Not Active | – | – | – | – |
| CCC1(c2ccccc2)C(=O)NCNC1=O [PRIMIDONE] | Not Active | Not Active | Not Active | Not Active | – | – | – | – |
| CCOC(=O)c1ccc(N)cc1 [BENZOCAINE] | Not Active | Not Active | Not Active | Not Active | – | – | – | – |

| SMILES | IC50 ([1]; sf9) | IC50 [2] | Ki [2] | IC50 [3] | IC50 ([2]; read-out: IC50) | Ki ([2]; read-out: Ki) | IC50 ([1]; read-out: IC50) | Ki [1] |
| --- | --- | --- | --- | --- | --- | --- | --- | --- |
| CC=CC(=O)N(CC)c1ccccc1C | Not Active | Not Active | Not Active | Not Active | – | – | – | – |
| Cn1cnc([N+](=O)[O-])c1Sc1ncnc2nc[nH]c12 [AZATHIOPRINE] | Not Active | Not Active | Not Active | Not Active | – | – | – | – |
| Oc1c(Cl)cc(Cl)cc1Sc1cc(Cl)cc(Cl)c1O [BITHIONOL] | – | Not Active | Not Active | Not Active | – | – | 4390 nM | 638 nM |
| COC1=CC(=O)C[C@@H](C)[C@]12Oc1c(Cl)c(OC)cc(OC)c1C2=O [GRISEOFULVIN] | Not Active | Not Active | Not Active | Not Active | – | – | – | – |
| CN1C[C@H](C(=O)N[C@]2(C)O[C@@]3(O)[C@@H]4CCCN4C(=O)[C@H](Cc4ccccc4)N3C2=O)C=C2c3cccc4[nH]cc(c34)C[C@H]21 [ERGOTAMINE] | – | Not Active | Not Active | Not Active | – | – | 12 nM | 1.81 nM |
| CCCc1cc(=O)[nH]c(=S)[nH]1 [PROPYLTHIOURACIL] | Not Active | Not Active | Not Active | Not Active | – | – | – | – |
| Nc1nc2c(ncn2COC(CO)CO)c(=O)[nH]1 [GANCICLOVIR] | Not Active | Not Active | Not Active | Not Active | – | – | – | – |
| O=C1NC(=O)C(c2ccccc2)(c2ccccc2)N1 [PHENYTOIN] | Not Active | Not Active | Not Active | Not Active | – | – | – | – |
| C=C1CC[C@H](O)C/C1=C/C=C1\CCC[C@]2(C)[C@@H]([C@H](C)/C=C/[C@H](C)C(C)C)CC[C@@H]12 [ERGOCALCIFEROL] | Not Active | Not Active | Not Active | Not Active | – | – | – | – |
| NCC1(CC(=O)O)CCCCC1 [GABAPENTIN] | Not Active | Not Active | Not Active | Not Active | – | – | – | – |
| COc1c(N2CCNC(C)C2)c(F)cc2c(=O)c(C(=O)O)cn(C3CC3)c12 (centres undefined) [GATIFLOXACIN] | Not Active | Not Active | Not Active | Not Active | – | – | – | – |
| CC1=Nc2ccc(Cl)cc2S(=O)(=O)N1 [DIAZOXIDE] | Not Active | Not Active | Not Active | Not Active | – | – | – | – |
| COC(=O)[C@H](c1ccccc1Cl)N1CCc2sccc2C1 [CLOPIDOGREL] | Not Active | Not Active | Not Active | Not Active | – | – | – | – |
| CN(C)CCCC1(c2ccc(F)cc2)OCc2cc(C#N)ccc21 (centres undefined) [CITALOPRAM] | Not Active | – | – | Not Active | 1790 nM | 1590 nM | – | – |
| CC(C)(S)[C@@H](N)C(=O)O [PENICILLAMINE] | Not Active | Not Active | Not Active | Not Active | – | – | – | – |
| CC1COc2c(N3CCN(C)CC3)c(F)cc3c(=O)c(C(=O)O)cn1c23 (centres undefined) [OFLOXACIN] | Not Active | Not Active | Not Active | Not Active | – | – | – | – |
| Cc1[nH]cnc1CN1CCc2c(c3ccccc3n2C)C1=O [ALOSETRON] | Not Active | Not Active | Not Active | Not Active | – | – | – | – |
| NS(=O)(=O)c1cc2c(cc1Cl)NCNS2(=O)=O [HYDROCHLOROTHIAZIDE] | Not Active | Not Active | Not Active | Not Active | – | – | – | – |
| CCCCCCCCCc1ccc(O)cc1 [4-NONYLPHENOL] | Not Active | Not Active | Not Active | Not Active | – | – | – | – |
